# Assay results: PubChem BioAssay (NCI)
#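 48-hour exposure; five concentrations; linearly interpolated endpoints. Here, GI50 denotes the concentration required for 50% inhibition of growth. The concentration for full growth arrest is given as TGI.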
# What was measured:
# Test in all cases: DTP human tumour cell line panel, 48 h
# SW-620 colon = tested on: SW-620 colon
# UO-31 renal = tested on: UO-31 renal
# RXF 393 renal = tested on: RXF 393 renal
# HS 578T breast = tested on: HS 578T breast
# KM12 colon = tested on: KM12 colon
# MCF7 breast = tested on: MCF7 breast
# A549 NSCLC = tested on: A549 NSCLC
# UACC-62 melanoma = tested on: UACC-62 melanoma
# SK-OV-3 ovarian = tested on: SK-OV-3 ovarian
# MDA-MB-231 breast = tested on: MDA-MB-231 breast
Compound,GI50 (SW-620 colon) [µM],TGI (SW-620 colon) [µM],GI50 (UO-31 renal) [µM],TGI (UO-31 renal) [µM],GI50 (RXF 393 renal) [µM],TGI (RXF 393 renal) [µM],GI50 (HS 578T breast) [µM],TGI (HS 578T breast) [µM],GI50 (KM12 colon) [µM],TGI (KM12 colon) [µM],GI50 (MCF7 breast) [µM],TGI (MCF7 breast) [µM],GI50 (A549 NSCLC) [µM],TGI (A549 NSCLC) [µM],GI50 (UACC-62 melanoma) [µM],TGI (UACC-62 melanoma) [µM],GI50 (SK-OV-3 ovarian) [µM],TGI (SK-OV-3 ovarian) [µM],GI50 (MDA-MB-231 breast) [µM],TGI (MDA-MB-231 breast) [µM]
C=C1C(=O)O[C@H]2[C@H]1CC/C(COC(=O)/C=C\C(=O)NCc1ccc(Cn3c(=O)sn(-c4ccc(OC)cc4)c3=O)cc1)=C\CC[C@@]1(C)O[C@@H]21,0.272,1,0.408,1.06,0.51,1.17,0.913,2.51,0.884,1.81,0.292,1.17,0.938,2.88,0.7,1.41,4.77,11.6,0.701,1.7
O=C1Nc2ccccc2C1(c1ccc(O)c(F)c1)c1ccc(O)c(F)c1,20.6,84.3,11.9,42.8,0.969,10.5,0.3,4.44,3.07,22.9,0.27,2.81,19.1,81.8,10.2,33.7,21.1,52,13.4,35.5
O=S(=O)(O)c1ccc(Cl)cc1.[Cd],52.3,> 100,> 100,> 100,27.3,79.3,47,> 100,73.4,> 100,34.6,> 100,> 100,> 100,13.8,28,> 100,> 100,> 100,> 100
Cc1cc2cc(Cl)ccc2nc1C(=O)c1ccccc1,,> 100,,> 100,,> 100,,,,> 100,,,,> 100,,> 100,,,,
C/C(=N\Nc1ccc2ccccc2n1)c1ccccc1O,,> 100,,> 100,,> 100,,> 100,,> 100,,> 100,,> 100,,> 100,,> 57.6,,> 100
O=C(/C=C/c1ccccn1)c1ccccc1O,1.92,4.02,1.31,2.6,1.75,3.25,2.36,7.27,1.55,3.04,2.47,10.4,5.37,20.4,1.82,3.87,5.54,17.9,2.8,7.5
Cc1ccc(Cl)cc1Nc1nc(C(F)(F)F)ccc1C(=O)N/N=C/c1c(Cl)cccc1Cl,0.475,12.2,1.53,5.13,1.23,3.48,1.04,6.18,0.542,9.08,1.74,> 38.1,1.5,> 100,0.925,4.02,0.899,4.76,0.524,2.85
O=C1CSC(=S)N1c1ccc(F)cc1F,,> 100,,> 100,,> 100,,> 100,,> 100,,51.5,,> 100,,> 100,,> 100,,> 100
O=C(CCCCC(=O)N/N=C\c1ccccc1Cl)N/N=C\c1ccccc1Cl,,,3.32,> 100,11,32.7,2.02,49,,,1.62,> 100,1.77,> 100,3.98,> 100,,,12.5,55.7
CC1(C)CC[C@]2(C(=O)n3ccnc3)CC[C@]3(C)[C@H](C(=O)C=C4[C@@]5(C)C=C(C#N)C(=O)C(C)(C)[C@@H]5CC[C@]43C)[C@@H]2C1,,,< 0.0108,< 0.0174,0.0114,0.0536,,,< 0.0104,< 0.0199,< 0.01,> 100,< 0.0214,,< 0.014,< 0.0336,0.0347,0.317,0.0184,0.0682
COc1ccc2nc3cc(Cl)ccc3c(NCCC(=O)OCC(O)C(O)C(O[C@H](C)C(=O)NC(C)C(=O)NC(CCC(N)=O)C(=O)OCc3ccccc3)C(C=O)NC(C)=O)c2c1 (stereo not given in full),,30.9,,34.7,,,,,,41.7,,,,32.4,,34,,33,,
O=C(Nc1ccc(Cl)c(Cl)c1)C(=O)Nn1c(=S)[nH]c2ccccc2c1=O,,> 100,,> 100,,> 100,,,,> 100,,,,> 100,,> 100,,> 100,,
O=C(CCc1nnc2s/c(=C\c3ccc4c(c3)OCO4)c(=O)n12)Nc1cc(Cl)ccc1Cl,,> 60.5,,> 100,,> 100,,,,> 100,,,,> 100,,> 100,,> 100,,
COc1cc(C2c3cc4c(cc3[C@H](NC(=O)c3cccs3)C3COC(=O)[C@H]23)OCO4)cc(OC)c1OC (stereo not given in full),,> 100,,> 44.3,,0.0543,,,,,,31.3,,37.1,,> 100,,> 100,,0.0128
COc1ccc2c(c1)CCc1cnn(C3OC(COC(C)=O)C(OC(C)=O)C(OC(C)=O)C3OC(C)=O)c1-2 (stereo not given),,36.2,,,,,,,,> 100,,,,> 100,,> 100,,,,
Cc1cc(C)nc(NS(=O)(=O)c2ccc(NC(=O)c3cccc4c(Nc5ccc(S(=O)(=O)Nc6nc(C)cc(C)n6)cc5)c5ccccc5nc34)cc2)n1,,65.3,,37.3,,31.5,,,,44.3,,,,68.2,,57.3,,57.2,,
COc1ccc(NC(=O)CC/C(CC(=O)c2ccccc2Cl)=N\Nc2nnc(C)n2N)cc1,,> 100,,> 100,,> 100,,,,> 100,,,,> 100,,> 100,,> 100,,
CN(C)c1ccc(/C=C/C(=O)c2ccccc2)cc1Br,,43.8,,33.3,,,,,,33.3,,,,> 100,,32.3,,> 100,,
Cn1c(=O)nc2n(-c3ccc(F)cc3)c3ccccc3nc-2c1=O,,34,,> 100,,79.8,,,,> 100,,,,48.6,,25,,> 100,,
O=C1OC(c2ccccc2)C2CC3CC4(CCC3CN12)OCCO4 (stereo not given),,> 100,,> 100,,> 100,,,,> 100,,,,> 100,,> 100,,> 100,,

Compound,GI50 (SW-620 colon) [µM],TGI (SW-620 colon) [µM],GI50 (UO-31 renal) [µM],TGI (UO-31 renal) [µM],GI50 (RXF 393 renal) [µM],TGI (RXF 393 renal) [µM],GI50 (HS 578T breast) [µM],TGI (HS 578T breast) [µM],GI50 (KM12 colon) [µM],TGI (KM12 colon) [µM],GI50 (MCF7 breast) [µM],TGI (MCF7 breast) [µM],GI50 (A549 NSCLC) [µM],TGI (A549 NSCLC) [µM],GI50 (UACC-62 melanoma) [µM],TGI (UACC-62 melanoma) [µM],GI50 (SK-OV-3 ovarian) [µM],TGI (SK-OV-3 ovarian) [µM],GI50 (MDA-MB-231 breast) [µM],TGI (MDA-MB-231 breast) [µM]
COC(=O)CSc1ccccc1,,> 100,,> 100,,> 100,,,,> 100,,,,> 100,,> 100,,> 100,,
COc1ccc(C(=O)/C(=N/Nc2ccccc2)c2ccc(OC)cc2)cc1,,> 100,,> 100,,> 100,,,,> 100,,,,> 100,,> 100,,> 100,,
[N-]=[N+]=Nc1ccccc1-[n+]1noc([O-])c1Br,,> 100,,> 100,,> 100,,,,> 100,,,,> 100,,> 100,,> 100,,
N#Cc1ccc(/C=N\N2C(=O)c3ccccc3C2=O)cc1,,> 100,,> 100,,> 100,,,,> 100,,,,> 100,,> 100,,,,
COC(=O)CCC(=O)CC(=O)C(=O)Nc1ccc(F)cc1,,> 100,,> 100,,> 100,,,,> 100,,,,> 100,,> 100,,> 100,,
O=C(O)CN(CC(=O)O)Cc1cc2c(cc1O)Oc1cc(O)c(CN(CC(=O)O)CC(=O)O)cc1C21OC(=O)c2ccccc21,,> 100,,> 100,,,,> 100,,> 100,,> 100,,> 100,,> 100,,> 100,,> 100
O=c1oc2c3ccc4ccccc4c3n(CCN3CCOCC3)c2c2ccccc12,,> 100,,> 100,,,,,,> 100,,,,> 100,,> 100,,> 100,,
COc1ccc(C(=O)C(c2ccc(OC)cc2)C2C(=O)Oc3ccccc32)cc1 (stereo not given),> 100,> 100,,51.1,> 100,> 100,,,> 100,> 100,,,> 100,> 100,> 100,> 100,> 100,> 100,,
CC1(C)CC(=O)C(C(c2cccc(O)c2O)C2C(=O)CC(C)(C)CC2=O)C(=O)C1,,> 100,,,,> 100,,> 100,,> 100,,> 100,,> 100,,> 100,,> 100,,> 100
Nc1nc(=O)n(C2CC(O)C(O)C(CO)O2)cc1F (stereo not given),,> 100,,> 100,,> 100,,,,,,,,> 100,,> 100,,,,
COc1ccc(-c2cc(-c3ccc(O)cc3)nc3nc(=S)[nH]c(N)c23)cc1,16,33.3,13.2,44.9,28,92.7,20.6,48.4,16.9,41.3,12,35.6,17.4,54.6,14.7,30.3,,,16.1,57.8
COc1cc(-c2cc(/C=C/C(=O)c3ccc4c(c3)OCO4)[nH]n2)cc(OC)c1OC,,,1.91,5.44,1.48,2.87,3.71,78.7,,,,,4.32,> 100,4.67,> 100,5.76,26.1,3.5,> 100
COc1ccc(CN2C(=O)C(Cc3cc(OC)c(OC)c(C)c3OC)N(C(=O)OC(C)C)C(=O)/C2=C/c2cc(OC)c(OC)c(C)c2OC)cc1 (stereo not given),,> 100,,> 100,,> 100,,,,> 100,,,,> 100,,> 100,,> 100,,
C#CC[C@@H]1C[C@]2(C)[C@H]3CC[C@@H]4[C@H]5[C@H](C(=C)C)CC[C@]5(C(=O)O)CC[C@@]4(C)[C@]3(C)CC[C@H]2C(C)(C)[C@H]1O,1.98,4.28,1.83,5.33,1.7,3.52,2.34,7.01,1.64,4.83,,,1.31,2.8,2.64,9.84,2.39,5.25,2.32,6.11
COc1ccc2c(CC(=O)O)cc(=O)oc2c1,,> 100,,> 100,,> 100,,> 100,,> 100,,> 100,,> 100,,> 100,,,,> 100
CCOc1cc(C=O)c2c(ccc3ccc(OC)c(OC)c32)c1OC,,,,> 100,,> 100,,> 100,,> 100,,,,> 100,,> 100,,> 100,,> 100
Cc1cc2c(cc1C)N1Cc3c(ccc(C)c3C)N(C2)C1 (tested in a mixture with another compound),,> 100,,,,> 100,,,,> 100,,,,> 100,,> 100,,> 100,,
O=c1cc2n(c(=O)[nH]1)C1OC(C(O)C1O)[C@H]2CCO (stereo not given in full),,> 100,,> 100,,> 100,,,,> 100,,,,> 100,,> 100,,> 100,,
O=C(CC1(O)C(=O)Nc2c(Cl)cccc21)c1ccccc1 (stereo not given),,> 100,,> 100,,> 100,,,,> 100,,,,> 100,,,,> 100,,
